Reference: ChEMBL document CHEMBL2046425, “Neamphamide B, new cyclic depsipeptide, as an anti-dormant mycobacterial substance from a Japanese marine sponge of Neamphius sp” (2012)
In brackets after ≈: the same amount, converted by molar mass.

What was measured:
[1] = test system: Mycobacterium tuberculosis; test: Antimicrobial activity against Mycobacterium bovis BCG under dormancy-inducing hypoxic condition for 14 days by MTT assay; type: functional; settings: variant bovis BCG, 336 h
[2] = test system: Mycobacterium tuberculosis; test: Antimicrobial activity against Mycobacterium bovis BCG under aerobic condition for 7 days by MTT assay; type: functional; settings: variant bovis BCG, 168 h

`COC(c1ccc(O)cc1)C1NC(=O)[C@H](CCC(N)=O)N(C)C(=O)[C@H](CC(C)C)NC(=O)[C@@H](CCCNC(=N)N)NC(=O)[C@@H]([C@@H](C)O)NC(=O)[C@H](NC(=O)C(NC(=O)[C@H](O)[C@H](O)[C@H](CCCNC(=N)N)NC(=O)[C@@H](CC(N)=O)NC(=O)C(C)C(O)C(C)CC(C)C)C(C)C(C)C(N)=O)[C@@H](C)OC(=O)[C@@H]2CCCCN2C1=O` (some centres not stated) [NEAMPHAMIDE B] was tested, and the MIC [1] was 12.5 µg/mL (≈ 7.94 µM) and the MIC [2] was 6.25 µg/mL (≈ 3.97 µM).
